Patent US20200046837A1, “UROGENITAL MEDICAL DEVICE FORMULATION BASED ON SUITABLE BIOCHEMICAL COMPOSITIONS FOR THE STABILIZATION OF THE ACIDITY AND THE REDOX STATE OF THE VAGINAL FLUID” (PROBIOSWISS AG, priority 2016, published 2020)
Like-named read-outs stand apart in the source and are kept apart here.

Tests used:
[1] = tested on: Gram-positive bacteria such as Lactobacilli; details: cited from earlier work
[2] = Redox potential and pH of media formulation before and after addition of test compounds; details: M17-type medium
Protocol: After measurement of redox potential and pH several compounds (nitrogen and sulphur sources) were added to this medium and their effect on pH and redox potential was determined.
Redox values were read after the signal was stable for at least 30 seconds. In addition the pH was measured using a standard pH Electrode connected to a MP225 pH Meter (Mettler Toledo).

[3] = tested on: Lactobacillus gasseri KS 120.1; details: for OD: OD at 590 nm
Protocol: (§1) Growth was determined by measurement of optical density and pH at start, after 6 hours and after 24 hours.
(§2) All cultures were re-activated from cryopreserved (−80° C.) working stocks by cultivation on MRS agar for 1 to 3 days. A single colony from these plates was used to inoculate 5 ml of MRS broth. After incubation overnight, 10^7 cfu/ml were used to carry out the experiments.

[4] = tested on: Lactobacillus jensenii KS 119.1; details: for OD: OD at 590 nm
Protocol: as §1, §2

[5] = tested on: Lactobacillus crispatus KS 119.4; details: for OD: OD at 590 nm;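 on all read-outs here: growth in MRS broth cultures, followed via optical density and pH at the start, after 6 h and after 24 h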
[6] = tested on: tested lactobacilli (gasseri, crispatus and jensenii)
S. aureus = details: cited from earlier work
E. coli = details: cited from earlier work
K. pneumoniae = details: cited from earlier work
Penicillium notatum = details: cited from earlier work
Aspergillus niger = details: cited from earlier work
Saccharomyces cerevisiae = details: cited from earlier work
bacterial vaginosis = details: women with a negative redox potential; cited from earlier work

Clc1ccccc1C(c1ccccc1)(c1ccccc1)n1ccnc1 [Clotrimazole]
activity against Gram-positive bacteria [1]: bactericidal activity

N[C@@H](CS)C(=O)O [Cysteine]
redox potential (Eh) of the medium after addition of the compound [2]: −103 mV

N[C@@H](CSSC[C@H](N)C(=O)O)C(=O)O [Cystine]
effect of the added compound on the redox potential [2]: high positive redox potential

CS(C)(=O)=O [MSM, dimethylsulfone]
effect of the added compound on the redox potential [2]: high positive redox potential

C/C=C/C=C/C(=O)[O-].[K+] [Potassium Sorbate, potassium sorbate]
Interpretation ([3]; potassium sorbate 1.00%): 1
pH ([3]; potassium sorbate 1.00%, 0 h): 5.16
OD ([3]; potassium sorbate 1.00%, 0 h): 0.54
pH ([3]; potassium sorbate 1.00%, 6 h): 5
OD ([3]; potassium sorbate 1.00%, 6 h): 0.78
pH ([3]; potassium sorbate 1.00%, 24 h): 5.07
OD ([3]; potassium sorbate 1.00%, 24 h): 0.97
Interpretation ([3]; potassium sorbate […]): 1
pH ([3]; potassium sorbate […], 0 h): 5.31
OD ([3]; potassium sorbate […], 0 h): 0.53
pH ([3]; potassium sorbate […], 6 h): 5.26
OD ([3]; potassium sorbate […], 6 h): 0.73
pH ([3]; potassium sorbate […], 24 h): 5.26
OD ([3]; potassium sorbate […], 24 h): 0.72
Interpretation ([4]; potassium sorbate 0.10%): 0
pH ([4]; potassium sorbate 0.10%, 0 h): 4.5
OD ([4]; potassium sorbate 0.10%, 0 h): 0.08
pH ([4]; potassium sorbate 0.10%, 6 h): 4.5
OD ([4]; potassium sorbate 0.10%, 6 h): 0.23
pH ([4]; potassium sorbate 0.10%, 24 h): 4.5
OD ([4]; potassium sorbate 0.10%, 24 h): 0.44
Interpretation ([4]; potassium sorbate 0.50%): 1
pH ([4]; potassium sorbate 0.50%, 0 h): 4.5
OD ([4]; potassium sorbate 0.50%, 0 h): 0.07
pH ([4]; potassium sorbate 0.50%, 6 h): 4.5
OD ([4]; potassium sorbate 0.50%, 6 h): 0.11
pH ([4]; potassium sorbate 0.50%, 24 h): 4.85
OD ([4]; potassium sorbate 0.50%, 24 h): 0.124
Interpretation ([4]; potassium sorbate 1.00%): 2
pH ([4]; potassium sorbate 1.00%, 0 h): 5.03
OD ([4]; potassium sorbate 1.00%, 0 h): 0.18
pH ([4]; potassium sorbate 1.00%, 6 h): 5.01
OD ([4]; potassium sorbate 1.00%, 6 h): 0.26
pH ([4]; potassium sorbate 1.00%, 24 h): 5.09
OD ([4]; potassium sorbate 1.00%, 24 h): 0.16
Interpretation ([4]; potassium sorbate […]): 2
pH ([4]; potassium sorbate […], 0 h): 5.32
OD ([4]; potassium sorbate […], 0 h): 0.17
pH ([4]; potassium sorbate […], 6 h): 5.18
OD ([4]; potassium sorbate […], 6 h): 0.24
pH ([4]; potassium sorbate […], 24 h): 5.25
OD ([4]; potassium sorbate […], 24 h): 0.13
Interpretation ([5]; potassium sorbate 0.01%): 0
pH ([5]; potassium sorbate 0.01%, 0 h): 4.71
OD ([5]; potassium sorbate 0.01%, 0 h): 0.7
pH ([5]; potassium sorbate 0.01%, 6 h): 4.42
OD ([5]; potassium sorbate 0.01%, 6 h): 1.36
pH ([5]; potassium sorbate 0.01%, 24 h): 4.35
OD ([5]; potassium sorbate 0.01%, 24 h): 1.47
Interpretation ([5]; potassium sorbate 0.05%): 0
pH ([5]; potassium sorbate 0.05%, 0 h): 4.69
OD ([5]; potassium sorbate 0.05%, 0 h): 0.6
pH ([5]; potassium sorbate 0.05%, 6 h): 4.43
OD ([5]; potassium sorbate 0.05%, 6 h): 1.16
pH ([5]; potassium sorbate 0.05%, 24 h): 4.32
OD ([5]; potassium sorbate 0.05%, 24 h): 1.24
Interpretation ([5]; potassium sorbate 0.10%): 0
pH ([5]; potassium sorbate 0.10%, 0 h): 4.7
OD ([5]; potassium sorbate 0.10%, 0 h): 0.68
pH ([5]; potassium sorbate 0.10%, 6 h): 4.48
OD ([5]; potassium sorbate 0.10%, 6 h): 1.34
pH ([5]; potassium sorbate 0.10%, 24 h): 4.44
OD ([5]; potassium sorbate 0.10%, 24 h): 1.24
Interpretation ([5]; potassium sorbate 0.50%): 0
pH ([5]; potassium sorbate 0.50%, 0 h): 4.97
OD ([5]; potassium sorbate 0.50%, 0 h): 0.67
pH ([5]; potassium sorbate 0.50%, 6 h): 4.73
OD ([5]; potassium sorbate 0.50%, 6 h): 1.24
pH ([5]; potassium sorbate 0.50%, 24 h): 4.77
OD ([5]; potassium sorbate 0.50%, 24 h): 1.15
Interpretation ([5]; potassium sorbate 1.00%): 1
pH ([5]; potassium sorbate 1.00%, 0 h): 5.8
OD ([5]; potassium sorbate 1.00%, 0 h): 0.65
pH ([5]; potassium sorbate 1.00%, 6 h): 5.01
OD ([5]; potassium sorbate 1.00%, 6 h): 1.13
pH ([5]; potassium sorbate 1.00%, 24 h): 5.08
OD ([5]; potassium sorbate 1.00%, 24 h): 0.96
Interpretation ([5]; potassium sorbate […]): 1
pH ([5]; potassium sorbate […], 0 h): 5.32
OD ([5]; potassium sorbate […], 0 h): 0.64
pH ([5]; potassium sorbate […], 6 h): 5.2
OD ([5]; potassium sorbate […], 6 h): 0.99
pH ([5]; potassium sorbate […], 24 h): 5.26
OD ([5]; potassium sorbate […], 24 h): 0.76
concentration required for a slight inhibition [6]: ≥ 0.5%
microbiostatic concentration for the inhibition of growth (S. aureus): 50 to 100 µg/mL
microbiostatic concentration for the inhibition of growth (E. coli): 50 to 100 µg/mL
microbiostatic concentration for the inhibition of growth (K. pneumoniae): 50 to 100 µg/mL
microbiostatic concentration for the inhibition of growth (Penicillium notatum): 200 to 500 µg/mL
microbiostatic concentration for the inhibition of growth (Aspergillus niger): 200 to 500 µg/mL
microbiostatic concentration for the inhibition of growth (Saccharomyces cerevisiae): 50 to 100 µg/mL

N[C@@H](CCC(=O)O)C(=O)O [glutamic acid, L-Glutamic acid]
redox potential (Eh) of the medium after addition of the compound [2]: ~300 mV

Cc1ncc([N+](=O)[O-])n1CCO [metronidazole]
vaginal redox potential after a successful cure (bacterial vaginosis): returned to a positive one

O=S(O)(O)=S [thiosulfate, Na-Thiosulfate]
redox potential (Eh) of the medium after addition of the compound [2]: −36 mV
